Results reported in patent US20110105504A1, “Inhibitors Of 11beta-Hydroxysteroid Dehydrogenase Type 1” (Vitae Pharmaceuticals ,Inc., priority 2008, published 2011).

Target: T1, human 11β-HSD1 (Homo sapiens, UniProt P28845)
T1 construct: expressed in transfected cells; host or cells: CHO cells (microsomes isolated from them)
Experiment: Inhibition of microsomal preparation of 11β-HSD1 (SPA, [3H]cortisone to [3H]cortisol), Biological Test Example 1
Type: biochemical
Settings: microsomes from CHO cells overexpressing human 11β-HSD1; for Average % inhibition at 100 nM / inhibition at 0.1 µM: 100 nM compound; for Average % inhibition at 100 nM: 0.1 µM; for IC50: read-out: IC50 Range
Description: The inhibition of microsomal preparation of 11β-HSD1 by compounds of the invention was measured essentially as previously described (K. Solly, S. S. Mundt, H. J. Zokian, G. J. Ding, A. Hermanowski-Vosatka, B. Strulovici, and W. Zheng, High-Throughput Screening of 11-Beta-Hydroxysteroid Dehydrogenase Type 1 in Scintillation Proximity Assay Format. Assay Drug Dev Technol 3 (2005) 377-384). All reactions were carried out at room temperature in 96 well clear flexible PET Microbeta plates (PerkinElmer). The assay begins by dispensing 49 p. 1 of substrate solution (50 mM HEPES, pH 7.4, 100 mM KCl, 5 mM NaCl, 2 mM MgCl2, 2 mM NADPH and 160 nM [^3H]cortisone (1 Ci/mmol)) and mixing in 1 μL of the test compounds in DMSO previously diluted in half-log increments (8 points) starting at 0.1 mM. After a 10 minute pre-incubation, 50 μL of enzyme solution containing microsomes isolated from CHO cells overexpressing human 11β-HSD1 (10-20 μg/ml of total protein) was added, and the plates were incubated for 90 minutes at room temperature. The reaction was stopped by adding 50 μl of the SPA beads suspension containing 10 μM 18β-glycyrrhetinic acid, 5 mg/ml protein A coated YSi SPA beads (GE Healthcare) and 3.3 μg/ml of anti-cortisol antibody (East Coast Biologics) in Superblock buffer (Bio-Rad). The plates were shaken for 120 minutes at room temperature, and the SPA signal corresponding to [^3H]cortisol was measured on a Microbeta plate reader.

T1 sequence (P28845 whole entry): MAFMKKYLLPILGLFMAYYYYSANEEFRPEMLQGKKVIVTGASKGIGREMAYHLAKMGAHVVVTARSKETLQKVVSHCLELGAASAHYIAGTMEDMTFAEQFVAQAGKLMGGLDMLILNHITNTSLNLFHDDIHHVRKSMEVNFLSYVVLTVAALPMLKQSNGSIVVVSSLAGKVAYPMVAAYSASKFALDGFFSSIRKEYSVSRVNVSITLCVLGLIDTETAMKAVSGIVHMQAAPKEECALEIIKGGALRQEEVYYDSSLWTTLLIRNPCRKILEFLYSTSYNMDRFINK

Compound | Average % inhibition at 100 nM | IC50 | inhibition at 0.1 µM
C[C@@H](c1ccc(Br)cc1)N1CC(CCCO)(c2ccc(F)cc2)OC1=O (single isomer, unassigned) [Example 2 Isomer 1] | 78.3% | < 0.1 µM | –
C[C@@H](c1ccc(Br)cc1)N1CC(CCCO)(c2ccc(F)cc2)OC1=O (single isomer, unassigned) [Example 2 Isomer 2] | 16.9% | > 0.1 µM | –
C[C@@H](c1ccc(-c2ccc(F)cc2)cc1)N1CC(CCCO)(c2ccc(F)cc2)OC1=O (single isomer, unassigned) [Example 3 Isomer 1] | 91.4% | < 0.1 µM | –
Cc1cccc(N2CC(C)(c3ccccc3)OC2=O)c1 (stereo not drawn) [Example 7, 5-Methyl-5-phenyl-3-m-tolyloxazolidin-2-one] | – | > 1 µM | 5.4%

Second part, the molecule after the results:

Average % inhibition at 100 nM | IC50 | inhibition at 0.1 µM | Compound
19.1% | > 0.1 µM | – | C[C@@H](c1ccc(-c2ccc(F)cc2)cc1)N1CC(CCCO)(c2ccc(F)cc2)OC1=O (single isomer, unassigned) [Example 3 Isomer 2]
– | < 0.1 µM | 51.9% | C[C@@H](c1ccc(-c2ccn(C)c(=O)c2)cc1)N1C[C@](CC(C)(C)O)(c2ccccc2)OC1=O (single isomer, unassigned) [Example 5 Isomer 1]
– | > 0.1 µM | 3.4% | C[C@@H](c1ccc(-c2ccn(C)c(=O)c2)cc1)N1C[C@@](CC(C)(C)O)(c2ccccc2)OC1=O (single isomer, unassigned) [Example 5 Isomer 2]
– | > 0.1 µM | 18.4% | C[C@@H](c1ccc(-c2ccn(C)c(=O)c2)cc1)N1C[C@](CCC(C)(C)O)(c2ccccc2)OC1=O (single isomer, unassigned) [Example 6 Isomer 1]
19.8% | > 0.1 µM | – | C[C@@H](c1ccc(-c2ccn(C)c(=O)c2)cc1)N1C[C@](CCC(C)(C)O)(c2ccccc2)OC1=O (single isomer, unassigned) [Example 6 Isomer 2]
